Results on one molecule are retold here after patent US20040229205A1, “Compositions for the storage of platelets” (priority 2003, published 2004).

Structures are written as SMILES.

Series [1] has as its system platelets (aggregation). Kind of series: Platelet aggregation on thrombin challenge (optical density / aggregometer). In kind it is cell-based. The source says: Another parameter of platelet function is the ability to aggregate when challenged by an agonist. The platelet suspension is dense and milky white. Aggregation and subsequent settling of the aggregates can be estimated visually, or measured with a densitometer.
As a second measure of the effect of ribose on platelets, platelet aggregation was estimated. Platelet aggregation is a crucial function of platelet activity; platelets that cannot aggregate are essentially nonfunctional. Platelets were stored as above. The optical density of the suspension was measured before and after thrombin challenge.
Platelet aggregation was measured with a platelet aggregometer (Chronolog, Inc., Irvine, Calif.). Platelet-rich, turbid suspensions were stirred in a cuvette and the transmittance of light through the sample relative to a platelet poor blank is recorded. When a aggregating agent is added, activated platelets with exposed fibrinogen receptors (GPIIbIIIa) are brought in close contact with each other in a medium containing calcium and fibrinogen and form increasingly large platelet aggregates, accompanied by a decrease in turbidity. The change in optical density was then translated by the instrument to percent aggregation. Simple stated, as platelets clump, more light passes through the cuvette.

The conditions of series [2]: 30 grams of ribose each day, subjects; cited from earlier work.
In series [3] the test system is platelets (ATP secretion). Kind of series: ATP secretion of stored platelets in response to 10 nM thrombin (luciferin/luciferase). In kind it is cell-based. The source says: Yet another measure of platelet function is the secretion of ATP. Platelets that are able to function well are able to secrete ATP while cells that have already been activated or have lost funciton in other ways cannot secrete ATP.
The platelet dense granules shown in FIG. 1 contain ATP which is released in response to platelet agonists such as thrombin, collagen or adenosine diphosphate (ADP). The release reaction of ATP from platelets serves as another method to monitor platelet function. There are many methods to analyze ATP. A convenient method is the well known luciferin/luciferase reaction (Sigma Chemical, St. Louis). This assay is derived from the light producing system of the firefly. The substrate luciferin, in the presence of ATP, is cleaved by the enzyme luciferase, accompanied by the emission of light. The emitted light is measured by a photomultiplier tube
Platelet suspensions containing about 350 units in 40 μl were mixed with 10 μl luciferin/luciferase reagent. An agonist is injected. As the platelet dense granules release ATP, the bioluminescent reaction occurs, which is measured by the photomultiplier tube. […] The rate of reaction is recorded and as platelet function decays, the rate decays. Total ATP was measured by lysing the cells with Triton and determining ATP content. The results as presented in Table III are expressed as intact rate of ATP secretion.

For the molecule `O=C[C@H](O)[C@H](O)[C@H](O)CO` [D-Ribose], the “platelet samples with aggressive aggregation response to 10 nM thrombin” value in series [1] (day 3) is given as “all five”. Further, the “platelet samples responding (aggregation) to 10 nM thrombin” value in series [1] (day five) is on record as “four out of five”. In addition, in series [1] (day seven), the “platelet samples able to aggregate in response to thrombin challenge” value is given as “three out of five”. The “aggregation on thrombin challenge” value in series [1] (platelets stored in 150 pM D-Ribose) is given as “no aggregation”; in series [1] (platelets stored in 150 nM D-Ribose) it was “strong aggregation”; in series [1] (platelets stored in 15 μM D-Ribose), “very weak effect”; in series [1] (platelets stored in 1.5 mM D-Ribose), “no aggregation”. Besides, the tolerance of ingestion entry in series [2] is listed as “no ill effects”. The “preservative effect on ATP secretion” value in series [3] (1.5 nM D-Ribose) is given as “no preservative effect”. For the same molecule, in series [3] (150 nM D-Ribose), the “rise of total ATP content of treated cells” value is recorded as “more than 10%”. In addition, the “Rate of ATP secretion” value is 1.9 in series [3] (150 nM D-Ribose, day 1, 10 nM thrombin); 1.9 in series [3] (150 nM D-Ribose, day 3, 10 nM thrombin); 1.7 in series [3] (150 nM D-Ribose, day 5, 10 nM thrombin); 1.6 in series [3] (150 nM D-Ribose, day 7, 10 nM thrombin). For the same molecule, the “Total ATP” value in series [3] (150 nM D-Ribose, day 1, cells lysed with Triton) came to 3.0; in series [3] (150 nM D-Ribose, day 3, cells lysed with Triton), 3.2; in series [3] (150 nM D-Ribose, day 5, cells lysed with Triton) it was 3.4; in series [3] (150 nM D-Ribose, day 7, cells lysed with Triton), 3.4. Further, the “effect on ATP secretion” value in series [3] (15 mM D-Ribose) is reported as “no effect”. For the same molecule, the toxicity to platelets entry in series [3] (15 mM D-Ribose) was “toxic to platelets”. In series [3] (optimal amounts of D-Ribose (150 nM), day 7), the “ATP secretion activity, % of baseline” value is recorded as more than 80%. Moreover, the “mean ATP secretion activity, % of baseline” value in series [3] (optimal amounts of D-Ribose (150 nM), five days) is 90%.
